# Experimental data published in patent publication US20240208992A1, “MACROCYCLES AS CFTR MODULATORS” (Idorsia Pharmaceuticals Ltd, priority 2021, published 2024).
# Molecular target: human F508del-CFTR (Homo sapiens, UniProt P13569, DEL508-508)
# Test: F508del-CFTR cell surface expression (corrector activity), DiscoveRx ß-galactosidase complementation chemiluminescence assay in recombinant U2OS cell line;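 further: U2OS cells co-expressing ProLink-tagged F508del-CFTR and a membrane-anchored enzyme acceptor, where more surface CFTR restores β-galactosidase activity measured by chemiluminescence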
# Conditions: for EC50: EC50, F508del-CFTR cell surface expression; for Emax: U2OS
# [1] = U2OS cells, 16h compound incubation, geomean values
# [2] = in relation to Emax of corrector lumacaftor (=100%), arithmetic mean values
# [3] = U2OS cell line, 16h compound incubation, geomean values
# [4] = in relation to the Emax of the corrector lumacaftor (=100%), U2OS cell line, 16h compound incubation, arithmetic mean values
# human F508del-CFTR, sequence (P13569 with tags, fused parts or gaps DEL508-508): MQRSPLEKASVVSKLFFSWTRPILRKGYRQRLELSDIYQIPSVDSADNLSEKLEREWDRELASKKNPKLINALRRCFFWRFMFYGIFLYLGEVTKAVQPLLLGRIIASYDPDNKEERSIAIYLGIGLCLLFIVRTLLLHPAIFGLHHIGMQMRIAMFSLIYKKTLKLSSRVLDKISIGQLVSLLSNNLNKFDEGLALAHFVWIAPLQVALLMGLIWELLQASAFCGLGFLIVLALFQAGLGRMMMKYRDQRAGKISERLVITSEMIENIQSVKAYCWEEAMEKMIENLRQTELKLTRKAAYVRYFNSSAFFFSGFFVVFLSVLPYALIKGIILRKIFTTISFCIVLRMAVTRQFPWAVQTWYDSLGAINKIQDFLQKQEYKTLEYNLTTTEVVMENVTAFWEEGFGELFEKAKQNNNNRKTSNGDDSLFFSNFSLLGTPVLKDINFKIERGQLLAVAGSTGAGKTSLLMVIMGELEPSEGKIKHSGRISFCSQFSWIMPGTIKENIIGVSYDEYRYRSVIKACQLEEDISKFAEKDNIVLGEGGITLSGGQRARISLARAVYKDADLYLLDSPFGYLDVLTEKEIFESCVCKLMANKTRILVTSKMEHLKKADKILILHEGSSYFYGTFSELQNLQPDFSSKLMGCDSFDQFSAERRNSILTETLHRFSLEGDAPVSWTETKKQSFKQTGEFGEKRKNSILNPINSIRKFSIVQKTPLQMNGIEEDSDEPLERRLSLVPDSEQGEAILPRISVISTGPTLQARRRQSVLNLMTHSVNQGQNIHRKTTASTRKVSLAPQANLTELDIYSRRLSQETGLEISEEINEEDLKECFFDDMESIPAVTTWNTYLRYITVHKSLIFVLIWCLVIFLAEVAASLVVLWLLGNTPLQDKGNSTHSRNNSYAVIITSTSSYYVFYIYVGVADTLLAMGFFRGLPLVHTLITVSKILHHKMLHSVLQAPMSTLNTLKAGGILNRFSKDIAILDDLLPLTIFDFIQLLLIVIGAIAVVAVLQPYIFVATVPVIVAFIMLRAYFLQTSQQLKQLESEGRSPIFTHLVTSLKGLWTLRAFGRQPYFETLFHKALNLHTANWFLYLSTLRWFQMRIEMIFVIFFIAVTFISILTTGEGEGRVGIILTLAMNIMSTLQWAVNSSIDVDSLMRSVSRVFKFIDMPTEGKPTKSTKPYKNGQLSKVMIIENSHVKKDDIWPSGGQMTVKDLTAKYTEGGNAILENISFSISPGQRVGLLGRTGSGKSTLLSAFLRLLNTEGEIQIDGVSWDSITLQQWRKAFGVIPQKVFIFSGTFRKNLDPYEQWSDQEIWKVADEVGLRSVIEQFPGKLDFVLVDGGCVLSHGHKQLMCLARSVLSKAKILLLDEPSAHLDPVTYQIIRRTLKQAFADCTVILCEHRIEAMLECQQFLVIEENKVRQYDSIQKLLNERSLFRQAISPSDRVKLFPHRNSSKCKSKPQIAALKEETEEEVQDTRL
Structure (SMILES),EC50 [3] [nM],Emax [4] [%],other results
"COc1cccc(CCNC(=O)[C@@H]2CC(=O)N(C)[C@@H](CC(C)C)C(=O)N3CCNC[C@@H]3C(=O)N[C@H](Cc3ccccc3)COc3ccc4ccccc4c3C(=O)N2)c1 [Example 726, (4aR,7R,18S,22S)-7-benzyl-22-isobutyl-N-(3-methoxyphenethyl)-21-methyl-5,16,20,23-tetraoxo-2,3,4,4a,5,6,7,8,16,17,18,19,20,21,22,23-hexadecahydro-1H-naphtho[1,2-p]pyrazino[2,1-f][1]oxa[4,7,10,14]tetraazacycloheptadecine-18-carboxamide]",,,EC50 [1]: 624 nM; Emax [2]: 234%
"COc1cccc(CCNC(=O)[C@@H]2CC(=O)N(C)[C@@H](CC(C)C)C(=O)N(C)[C@@H](C)C(=O)N[C@H](Cc3ccccc3)COc3ccc4cc(C)oc4c3C(=O)N2)c1 (mixture of isomers) [Example 575, (8R,11RS,14S,18S)-8-benzyl-14-isobutyl-N-(3-methoxyphenethyl)-2,11,12,15-tetramethyl-10,13,16,20-tetraoxo-7,8,9,10,11,12,13,14,15,16,17,18,19,20-tetradecahydrobenzofuro[7,6-p][1]oxa[4,7,10,14]tetraazacycloheptadecine-18-carboxamide]",,,EC50 [1]: 411 nM; Emax [2]: 273%
"COCCCN1C(=O)[C@H](CC(C)C)N(C)C(=O)C[C@@H](C(=O)NCCc2cccc(OC)c2)NC(=O)c2c(ccc3ccccc23)OC[C@@H](Cc2ccccc2)NC(=O)C12CC2 [Example 396, (3′S,7′S,13′R)-13′-benzyl-7′-isobutyl-N-(3-methoxyphenethyl)-9′-(3-methoxypropyl)-6′-methyl-1′,5′,8′,11′-tetraoxo-2′,3′,4′,5′,6′,7′,8′,9′,11′,12′,13′,14′-dodecahydro-1′H-spiro[cyclopropane-1,10′-naphtho[1,2-p][1]oxa[4,7,10,14]tetraazacycloheptadecine]-3′-carboxamide]",241,190,
"CCOc1cccc(CCNC(=O)[C@@H]2CC(=O)N(C)[C@@H](CC(C)C)C(=O)N3CCOC[C@@H]3C(=O)N[C@H](Cc3ccccc3)COc3ccc4ccccc4c3C(=O)N2)c1 [Example 397, (4aR,7R,18S,22S)-7-benzyl-N-(3-ethoxyphenethyl)-22-isobutyl-21-methyl-5,16,20,23-tetraoxo-1,2,4,4a,5,6,7,8,16,17,18,19,20,21,22,23-hexadecahydronaphtho[1,2-p][1,4]oxazino[3,4-f][1]oxa[4,7,10,14]tetraazacycloheptadecine-18-carboxamide]",262,207,
"COc1cccc(CCNC(=O)[C@@H]2CC(=O)N(C)[C@@H](CC(C)C)C(=O)N3CCN(C(C)C)C[C@@H]3C(=O)N[C@H](Cc3ccccc3)COc3ccc4ncn(C)c4c3C(=O)N2)c1 [Example 353, (8S,12S,18aR,21R)-21-benzyl-12-isobutyl-17-isopropyl-N-(3-methoxyphenethyl)-5,11-dimethyl-6,10,13,19-tetraoxo-6,7,8,9,10,11,12,13,16,17,18,18a,19,20,21,22-hexadecahydro-5H,15H-imidazo[4′,5′:5,6]benzo[1,2-p]pyrazino[2,1-f][1]oxa[4,7,10,14]tetraazacycloheptadecine-8-carboxamide]",513,177,
"Cc1cc2c3c(ccc2cn1)OC[C@@H](Cc1ccccc1)NC(=O)[C@H]1CCCCN1C(=O)[C@H](CC(C)C)N(C)C(=O)C[C@@H](C(=O)NCCn1nnc(C2CC2)n1)NC3=O [Example 823, (9S,13S,19aR,22R)-22-benzyl-N-(2-(5-cyclopropyl-2H-tetrazol-2-yl)ethyl)-13-isobutyl-5,12-dimethyl-7,11,14,20-tetraoxo-7,8,9,10,11,12,13,14,17,18,19,19a,20,21,22,23-hexadecahydro-16H-pyrido[2′,1′:6,7][1]oxa[4,7,10,14]tetraazacycloheptadecino[16,17-f]isoquinoline-9-carboxamide]",,,"EC50 (U2OS cells, 16h compound incubation, geomean of several measurements): 241 nM; Emax (in relation to the Emax of the corrector lumacaftor (=100%), U2OS cells, 16h compound incubation, arithmetic mean): 366%"
"CC(C)C[C@H]1C(=O)N2CCOC[C@@H]2C(=O)N[C@H](Cc2ccccc2)COc2ccc3ccccc3c2C(=O)N[C@H](C(=O)NCCc2cccc(-n3nccn3)c2)CC(=O)N1C [Example 41, (4aR,7R,18S,22S)-N-(3-(2H-1,2,3-triazol-2-yl)phenethyl)-7-benzyl-22-isobutyl-21-methyl-5,16,20,23-tetraoxo-1,2,4,4a,5,6,7,8,16,17,18,19,20,21,22,23-hexadecahydronaphtho[1,2-p][1,4]oxazino[3,4-f][1]oxa[4,7,10,14]tetraazacycloheptadecine-18-carboxamide]",280,215,
"CC(C)C[C@H]1C(=O)N2CCCC[C@@H]2C(=O)N[C@H](Cc2ccccc2)COc2ccc3ncn(C)c3c2C(=O)N[C@H](C(=O)NCCc2ccc3c(c2)OCO3)CC(=O)N1C [Example 329, (8S,12S,18aR,21R)-N-(2-(benzo[d][1,3]dioxol-5-yl)ethyl)-21-benzyl-12-isobutyl-5,11-dimethyl-6,10,13,19-tetraoxo-6,7,8,9,10,11,12,13,16,17,18,18a,19,20,21,22-hexadecahydro-5H,15H-imidazo[4′,5′:5,6]benzo[1,2-p]pyrido[2,1-f][1]oxa[4,7,10,14]tetraazacycloheptadecine-8-carboxamide]",796,198,
"COc1nccc2c1C(=O)N[C@H](C(=O)NCCc1ccc(-c3ncccn3)cc1)CC(=O)N(C)[C@@H](CC(C)C)C(=O)N1CCCC[C@@H]1C(=O)N[C@H](Cc1ccccc1)CO2 [Example 181, (7S,11S,17aR,20R)-20-benzyl-11-isobutyl-4-methoxy-10-methyl-5,9,12,18-tetraoxo-N-(4-(pyrimidin-2-yl)phenethyl)-5,6,7,8,9,10,11,12,15,16,17,17a,18,19,20,21-hexadecahydro-14H-dipyrido[2,1-f:3′,4′-p][1]oxa[4,7,10,14]tetraazacycloheptadecine-7-carboxamide]",718,251,
"CC(C)C[C@H]1C(=O)N(C)CC(=O)N[C@H](Cc2ccccc2)COc2cc3ccccc3cc2C(=O)N[C@H](C(=O)NCCc2ccc3c(c2)OCO3)CC(=O)N1C [Example 236, (3R,9S,13S)-N-(2-(benzo[d][1,3]dioxol-5-yl)ethyl)-3-benzyl-9-isobutyl-7,10-dimethyl-5,8,11,15-tetraoxo-2,3,4,5,6,7,8,9,10,11,12,13,14,15-tetradecahydronaphtho[2,3-p][1]oxa[4,7,10,14]tetraazacycloheptadecine-13-carboxamide]",435,126,
"CCN1C(=O)C[C@@H](C(=O)NCCc2nc(C3CC3)no2)NC(=O)c2c(cnc3ccccc23)OC[C@@H](Cc2ccccc2)NC(=O)[C@H]2CCCCN2C(=O)[C@@H]1CC(C)C [Example 646, (9S,13S,19aR,22R)-22-benzyl-N-(2-(3-cyclopropyl-1,2,4-oxadiazol-5-yl)ethyl)-12-ethyl-13-isobutyl-7,11,14,20-tetraoxo-7,8,9,10,11,12,13,14,17,18,19,19a,20,21,22,23-hexadecahydro-16H-pyrido[2′,1′:6,7][1]oxa[4,7,10,14]tetraazacycloheptadecino[17,16-c]quinoline-9-carboxamide]",,,EC50 [1]: 158 nM; Emax [2]: 201%
